{
  "source": "patent US12459914B2",
  "about": "“Compounds and compositions for the treatment of tumors” (FONDAZIONE ISTITUTO ITALIANO DI TECNOLOGIA, priority 2019, dated 2025)",
  "key": {"[1]": {"tested_on": "Homologous recombination (HR) in BxPC3 cells", "test": "Homologous recombination assay (HR)", "assay_type": "cell-based", "details": "Homo sapiens, BXPC-3, read-out: HR inhibition: IC50", "method": "Homologous recombination (HR) was assessed by using a commercially available assay (Norgen). This assay is based on cell co-transfection with two plasmids that, upon cells entering, recombinate. The efficiency of HR can be assessed by real time PCR, using primer mixtures included in the assay kit. Different primer mixtures allow differentiation between the original plasmid backbones and their recombination product.\nBxPC3 cells (2×10^3 per well) were seeded in a 24-well plate and allowed to adhere overnight. Co-transfection with the two plasmids was performed in Lipofectamine 2000 (Invitrogen) for 5 h, according to the manufacturer's instructions. During transfection cells were exposed at different doses of BRCA2-Rad51 disruptors, dissolved in RPMI without serum in the presence of 0.6% DMSO.\nAfter washing with PBS, cells were harvested, and DNA was isolated using QIAamp® DNA Mini Kit (Qiagen). Sample concentration was measured using an ONDA Nano Genius photometer.\nThe thermal cycler (CFX96 ™ Real Time System, BioRad) was programmed as follows: initial denaturation 95° C. for 3 min then 95° C. for 15 sec., 61° C. for 30 sec., 72° C. for 1 min and repeated for 40 cycles. Melt curve analysis was done. Samples were run in triplicate, in 10 μl reaction volume containing 25 ng of template.\nIn each DNA sample from control and treated cultures, the ΔCt between the recombination product and the backbone plasmids was calculated. HR efficiency was evaluated from the 2^−ΔΔ^Ct value obtained by comparing treated vs control samples."}, "[2]": {"test": "Pharmacokinetic studies in mice, plasma levels by LC/MS-MS", "assay_type": "in vivo, C57B6/J mice", "details": "for half-life: read-out: t1/2 (calc)", "method": "Male C57B6/J mice, 8 weeks old were used (Charles River). All procedures were performed in accordance with the Ethical Guidelines of European Communities Council (Directive 2010/63/EU of 22 Sep. 2010) and accepted by the Italian Ministry of Health. All efforts were made to minimize animal suffering and to use the minimal number of animals required to produce reliable results, according to the “3Rs concept”. Animals were group-housed in ventilated cages and had free access to food and water. They were maintained under a 12-hour light/dark cycle (lights on at 8:00 am) at controlled temperature (21° C.±1° C.) and relative humidity (55%±10%).\nCompound d.12 was administered orally (PO), intraperitoneally (IP) and intravenously (IV) to C57B6/J male mice at 2 mg/kg/10 ml, 20 mg/kg/10 ml and 2 mg/kg/5 ml, respectively. Vehicle was composed by PEG400/Tween 80/Saline solution at 10/10/80% in volume, respectively for PO and IV administration. For IP administration, the same vehicle was used with the addition of 10% DMSO in final volume. Three animals per dose were treated. Blood samples at 0, 15, 30, 60, 120, 240, and 480 min after administration were collected for PO and IP arms. Blood samples at 0, 5, 15, 30, 60, 120 and 240 min after administration were collected for IV arm. Plasma was separated from blood by centrifugation for 15 min at 1500 rpm a 4° C., collected in a eppendorf tube and frozen (−80° C.). Control animals treated with vehicle only were also included in the experimental protocol.\nPlasma samples were centrifuged at 21.100×g for 15 min at 4° C. An aliquot of each plasma sample was extracted (1:3) with cold CH3CN containing 200 nM of d.48 as internal standard being a close analogue of the parent compound. A calibration curve was prepared in naïve mouse plasma over a 1 nM-10 μM range. Three quality control samples were prepared by spiking the parent compound in naïve mouse plasma to 20, 200 and 2000 nM as final concentrations. The calibrators and quality control samples were extracted (1:3) with the same extraction solution as the plasma samples. The plasma samples, calibrators and quality control samples were centrifuged at 3.270×g for 15 min at 4° C. The supernatants were further diluted (1:1) with H2O, and analyzed by LC/MS-MS on a Waters ACQUITY UPLC/MS TQD system consisting of a Triple Quadrupole Detector (TQD) Mass Spectrometer equipped with an Electrospray Ionization interface and a Photodiode Array e, Detector from Waters Inc. (Milford, MA, USA). Electrospray ionization was applied in positive mode. Compound-dependent parameters as MRM transitions and collision energy were developed for the parent compound and the internal standard. The analyses were run on an ACQUITY UPLC BEH C18 (50×2.1 mmID, particle size 1.7 μm) with a VanGuard BEH C18 pre-column (5×2.1 mmID, particle size 1.7 μm) at 40° C., using H2O+0.1% HCOOH (A) and CH3CN+0.1% HCOOH (B) as mobile phase at 0.5 mL/min. A linear gradient was applied starting at 40% B with an initial hold for 0.2 min, then 40-100% B in 2 min, followed by a hold for 0.1 min at 100% B. All samples (plasma samples, calibrators and quality controls) were quantified by MRM peak area response factor in order to determine the levels of the parent compound in plasma. The plasma concentrations versus time were plotted and the profiles were fitted using PK Solutions Excel Application (Summit Research Service, USA) in order to determine the pharmacokinetic parameters. The results are reported in Tables 2 and 3 and in FIGS. 1, 2 and 3."}, "[3]": {"details": "male, C57B6/J, mouse, plasma, mice, IP 20 mg/kg"}, "[4]": {"details": "male, C57B6/J, mouse, plasma, mice, IV 2 mg/kg"}, "[5]": {"details": "male, C57B6/J, mouse, plasma, mice, PO 2 mg/kg"}, "[6]": {"details": "male, C57B6/J, mouse plasma, IV 2 mg/kg, read-out: Average conc."}, "[7]": {"details": "male, C57B6/J, mouse plasma, PO 2 mg/kg, read-out: Average conc."}},
  "note": "Read-outs that look alike come from different tables or passages of the source.",
  "data": [
    {"compound": "CCC(=O)N1N=C(c2c(-c3ccccc3)c3cc(Cl)ccc3[nH]c2=O)CC1c1ccc(OC)cc1", "note": "(stereo not drawn) [d.12, 6-chloro-3-[3-(4-methoxyphenyl)-2-propanoyl-3,4-dihydropyrazol-5-yl]-4-phenyl-1H-quinolin-2-one]", "values": [
      {"measurement": "IC50", "setting": "[1]", "value": 18.4, "unit": "µM"},
      {"measurement": "AUC", "setting": "[2]; [3]", "value": 9.28, "unit": "µg·h/mL"},
      {"measurement": "Cmax", "setting": "[2]; [3]", "value": 5.3, "unit": "µg/mL"},
      {"measurement": "Tmax", "setting": "[2]; [3]", "value": 30, "unit": "min"},
      {"measurement": "half-life", "setting": "[2]; [3]", "value": 175, "unit": "min"},
      {"measurement": "AUC", "setting": "[2]; [4]", "value": 0.899, "unit": "µg·h/mL"},
      {"measurement": "Cmax", "setting": "[2]; [4]", "value": 0.973, "unit": "µg/mL"},
      {"measurement": "Tmax", "setting": "[2]; [4]", "value": 5, "unit": "min"},
      {"measurement": "clearance", "setting": "[2]; male, C57B6/J, mouse, plasma, mice, IV 2 mg/kg, read-out: CL (calc)", "value": 1.98, "unit": "L/h/kg"},
      {"measurement": "Vd", "setting": "[2]; male, C57B6/J, mouse, plasma, mice, IV 2 mg/kg, read-out: VD (calc)", "value": 2.2, "unit": "L/kg"},
      {"measurement": "half-life", "setting": "[2]; [4]", "value": 47, "unit": "min"},
      {"measurement": "AUC", "setting": "[2]; [5]", "value": 0.1, "unit": "µg·h/mL"},
      {"measurement": "Cmax", "setting": "[2]; [5]", "value": 0.076, "unit": "µg/mL"},
      {"measurement": "Tmax", "setting": "[2]; [5]", "value": 30, "unit": "min"},
      {"measurement": "half-life", "setting": "[2]; [5]", "value": 281, "unit": "min"},
      {"measurement": "concentration at 5 min", "setting": "[2]; male, C57B6/J, mouse plasma, IV 2 mg/kg, 5 min, read-out: Average conc.", "value": 0.973, "unit": "µg/mL"},
      {"measurement": "concentration at 15 min", "setting": "[2]; [6]", "value": 0.622, "unit": "µg/mL"},
      {"measurement": "concentration at 30 min", "setting": "[2]; [6]", "value": 0.515, "unit": "µg/mL"},
      {"measurement": "concentration at 60 min", "setting": "[2]; [6]", "value": 0.337, "unit": "µg/mL"},
      {"measurement": "concentration at 120 min", "setting": "[2]; [6]", "value": 0.146, "unit": "µg/mL"},
      {"measurement": "concentration at 240 min", "setting": "[2]; [6]", "value": 0.023, "unit": "µg/mL"},
      {"measurement": "concentration at 0 min", "setting": "[2]; male, C57B6/J, mouse plasma, PO 2 mg/kg, 0 min, read-out: Average conc.", "value": 0, "unit": "µg/mL"},
      {"measurement": "concentration at 15 min", "setting": "[2]; [7]", "value": 0.042, "unit": "µg/mL"},
      {"measurement": "concentration at 30 min", "setting": "[2]; [7]", "value": 0.076, "unit": "µg/mL"},
      {"measurement": "concentration at 60 min", "setting": "[2]; [7]", "value": 0.03, "unit": "µg/mL"},
      {"measurement": "concentration at 120 min", "setting": "[2]; [7]", "value": 0.021, "unit": "µg/mL"},
      {"measurement": "concentration at 240 min", "setting": "[2]; [7]", "value": 0.007, "unit": "µg/mL"},
      {"measurement": "concentration at 480 min", "setting": "[2]; male, C57B6/J, mouse plasma, PO 2 mg/kg, 480 min, read-out: Average conc.", "value": 0.004, "unit": "µg/mL"},
      {"measurement": "F", "setting": "[2]; mice, 2 mg/kg", "value": 11, "unit": "%"},
      {"measurement": "CL (calc)", "setting": "[2]; mice, IP 20 mg/kg", "value": 1.62, "unit": "L/h/kg"},
      {"measurement": "VD (calc)", "setting": "[2]; mice, IP 20 mg/kg", "value": 6.701, "unit": "L/kg"},
      {"measurement": "CL (calc)", "setting": "[2]; mice, PO 2 mg/kg", "value": 13.3, "unit": "L/h/kg"},
      {"measurement": "VD (calc)", "setting": "[2]; mice, PO 2 mg/kg", "value": 90.009, "unit": "L/kg"}
    ]}
  ]
}
